Key:
Assay in all cases: viability relative to DMSO control (fraction); higher = less drug effect (more viable cells)
Conditions in all cases: 48 h
[1] = test system: primary ALL patient cells (S048)
How it was run: (§1)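 Viability is given as CellTiter-Glo luminescence relative to the median of 16 inner DMSO wells. Fresh or cryopreserved primary mononuclear tumour cells from blood, bone marrow (both Ficoll-isolated) or processed lymph node were plated at 4 × 10^4 cells per well in 384-well plates against five pre-plated compound concentrations, one well each. Incubation lasted 48 h at 37 °C and 5% CO2 in RPMI-1640 with penicillin/streptomycin, L-glutamine and human serum.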

[2] = test system: primary AML patient cells (S002)
How it was run: as §1

[3] = test system: primary AML patient cells (S012)
How it was run: as §1

[4] = test system: primary AML patient cells (S017)
How it was run: as §1

[5] = test system: primary AML patient cells (S019)
How it was run: as §1

[6] = test system: primary AML patient cells (S037)
How it was run: as §1

[7] = test system: primary AML patient cells (S056)
How it was run: as §1

[8] = test system: primary AML patient cells (S071)
How it was run: as §1

[9] = test system: primary AML patient cells (S072)
How it was run: as §1

[10] = test system: primary AML patient cells (S079)
How it was run: as §1

[11] = test system: primary AML patient cells (S085)
How it was run: as §1

[12] = test system: primary AML patient cells (S089)
How it was run: as §1

[13] = test system: primary AML patient cells (S091)
How it was run: as §1

[14] = test system: primary BL patient cells (S005)
How it was run: as §1

[15] = test system: primary CLL patient cells (S031)
How it was run: as §1

[16] = test system: primary CLL patient cells (S043)
How it was run: as §1

[17] = test system: primary FL patient cells (S022)
How it was run: as §1

[18] = test system: primary MCL patient cells (S053)
How it was run: as §1

[19] = test system: primary MCL patient cells (S068)
How it was run: as §1

[20] = test system: primary AML patient cells (S025)
How it was run: as §1

Nc1ccc2ncnc(NCCc3ccc(Oc4ccccc4)cc3)c2c1 [EVP4593]
viability ([1]; 0.008 µM): 0.776 | viability ([1]; 0.04 µM): 0.919 | viability ([1]; 0.2 µM): 0.88 | viability ([1]; 1 µM): 0.869 | viability ([1]; 5 µM): 0.676 | viability ([2]; 0.008 µM): 0.922 | viability ([2]; 0.04 µM): 0.857 | viability ([2]; 0.2 µM): 0.753 | viability ([2]; 1 µM): 0.668 | viability ([2]; 5 µM): 0.726 | viability ([3]; 0.008 µM): 1.05 | viability ([3]; 0.04 µM): 1.03 | viability ([3]; 0.2 µM): 1.07 | viability ([3]; 1 µM): 0.992 | viability ([3]; 5 µM): 1.05 | viability ([4]; 0.008 µM): 0.889 | viability ([4]; 0.04 µM): 0.933 | viability ([4]; 0.2 µM): 0.875 | viability ([4]; 1 µM): 0.901 | viability ([4]; 5 µM): 0.795 | viability ([5]; 0.008 µM): 0.922 | viability ([5]; 0.04 µM): 0.883 | viability ([5]; 0.2 µM): 0.84 | viability ([5]; 1 µM): 0.82 | viability ([5]; 5 µM): 0.764 | viability ([6]; 0.008 µM): 0.943 | viability ([6]; 0.04 µM): 0.813 | viability ([6]; 0.2 µM): 0.859 | viability ([6]; 1 µM): 1.08 | viability ([6]; 5 µM): 1.07 | viability ([7]; 0.008 µM): 0.691 | viability ([7]; 0.04 µM): 0.627 | viability ([7]; 0.2 µM): 0.412 | viability ([7]; 1 µM): 0.313 | viability ([7]; 5 µM): 0.307 | viability ([8]; 0.008 µM): 0.768 | viability ([8]; 0.04 µM): 0.684 | viability ([8]; 0.2 µM): 0.351 | viability ([8]; 1 µM): 0.158 | viability ([8]; 5 µM): 0.121 | viability ([9]; 0.008 µM): 0.844 | viability ([9]; 0.04 µM): 0.823 | viability ([9]; 0.2 µM): 0.772 | viability ([9]; 1 µM): 0.637 | viability ([9]; 5 µM): 0.652 | viability ([10]; 0.008 µM): 0.818 | viability ([10]; 0.04 µM): 0.84 | viability ([10]; 0.2 µM): 0.806 | viability ([10]; 1 µM): 0.675 | viability ([10]; 5 µM): 0.646 | viability ([11]; 0.008 µM): 2.31 | viability ([11]; 0.04 µM): 0.901 | viability ([11]; 0.2 µM): 1.11 | viability ([11]; 1 µM): 0.666 | viability ([11]; 5 µM): 0.55 | viability ([12]; 0.008 µM): 0.701 | viability ([12]; 0.04 µM): 0.737 | viability ([12]; 0.2 µM): 0.629 | viability ([12]; 1 µM): 0.44 | viability ([12]; 5 µM): 0.215 | viability ([13]; 0.008 µM): 0.891 | viability ([13]; 0.04 µM): 0.837 | viability ([13]; 0.2 µM): 0.869 | viability ([13]; 1 µM): 0.624 | viability ([13]; 5 µM): 0.532 | viability ([14]; 0.008 µM): 1.01 | viability ([14]; 0.04 µM): 0.939 | viability ([14]; 0.2 µM): 0.811 | viability ([14]; 1 µM): 0.73 | viability ([14]; 5 µM): 0.716 | viability ([15]; 0.008 µM): 0.884 | viability ([15]; 0.04 µM): 0.854 | viability ([15]; 0.2 µM): 0.803 | viability ([15]; 1 µM): 0.686 | viability ([15]; 5 µM): 0.601 | viability ([16]; 0.008 µM): 0.794 | viability ([16]; 0.04 µM): 0.794 | viability ([16]; 0.2 µM): 0.774 | viability ([16]; 1 µM): 0.726 | viability ([16]; 5 µM): 0.695 | viability ([17]; 0.008 µM): 0.911 | viability ([17]; 0.04 µM): 0.871 | viability ([17]; 0.2 µM): 0.805 | viability ([17]; 1 µM): 0.816 | viability ([17]; 5 µM): 0.825 | viability ([18]; 0.008 µM): 0.876 | viability ([18]; 0.04 µM): 0.875 | viability ([18]; 0.2 µM): 0.821 | viability ([18]; 1 µM): 0.672 | viability ([18]; 5 µM): 0.642 | viability ([19]; 0.008 µM): 0.844 | viability ([19]; 0.04 µM): 0.766 | viability ([19]; 0.2 µM): 0.741 | viability ([19]; 1 µM): 0.683 | viability ([19]; 5 µM): 0.676

CNC(=O)c1cc(Oc2ccc(NC(=O)Nc3ccc(Cl)c(C(F)(F)F)c3)cc2)ccn1 [Sorafenib]
viability ([1]; 0.024 µM): 0.874 | viability ([1]; 0.12 µM): 1 | viability ([1]; 0.6 µM): 0.889 | viability ([1]; 3 µM): 0.894 | viability ([1]; 15 µM): 1.03 | viability ([2]; 0.024 µM): 0.941 | viability ([2]; 0.12 µM): 1.07 | viability ([2]; 0.6 µM): 1.09 | viability ([2]; 3 µM): 1.29 | viability ([2]; 15 µM): 0.601 | viability ([3]; 0.024 µM): 0.958 | viability ([3]; 0.12 µM): 0.991 | viability ([3]; 0.6 µM): 1.05 | viability ([3]; 3 µM): 1.01 | viability ([3]; 15 µM): 1.09 | viability ([4]; 0.024 µM): 0.955 | viability ([4]; 0.12 µM): 0.988 | viability ([4]; 0.6 µM): 0.935 | viability ([4]; 3 µM): 1.04 | viability ([4]; 15 µM): 0.927 | viability ([5]; 0.024 µM): 0.833 | viability ([5]; 0.12 µM): 1.18 | viability ([5]; 0.6 µM): 0.846 | viability ([5]; 3 µM): 1.11 | viability ([5]; 15 µM): 0.835 | viability ([20]; 0.024 µM): 0.988 | viability ([20]; 0.12 µM): 1.02 | viability ([20]; 0.6 µM): 1.06 | viability ([20]; 3 µM): 1.13 | viability ([20]; 15 µM): 0.813 | viability ([6]; 0.024 µM): 0.961 | viability ([6]; 0.12 µM): 1.06 | viability ([6]; 0.6 µM): 1.05 | viability ([6]; 3 µM): 1.05 | viability ([6]; 15 µM): 1.09 | viability ([7]; 0.024 µM): 0.642 | viability ([7]; 0.12 µM): 0.488 | viability ([7]; 0.6 µM): 0.443 | viability ([7]; 3 µM): 0.453 | viability ([7]; 15 µM): 0.374 | viability ([8]; 0.024 µM): 0.944 | viability ([8]; 0.12 µM): 1.01 | viability ([8]; 0.6 µM): 1.02 | viability ([8]; 3 µM): 1 | viability ([8]; 15 µM): 0.614 | viability ([9]; 0.024 µM): 1.02 | viability ([9]; 0.12 µM): 1.04 | viability ([9]; 0.6 µM): 0.99 | viability ([9]; 3 µM): 1.04 | viability ([9]; 15 µM): 1.01 | viability ([10]; 0.024 µM): 0.99 | viability ([10]; 0.12 µM): 1.02 | viability ([10]; 0.6 µM): 1.04 | viability ([10]; 3 µM): 1.1 | viability ([10]; 15 µM): 0.791 | viability ([11]; 0.024 µM): 1.09 | viability ([11]; 0.12 µM): 1.06 | viability ([11]; 0.6 µM): 0.916 | viability ([11]; 3 µM): 1.12 | viability ([11]; 15 µM): 1.03 | viability ([12]; 0.024 µM): 0.847 | viability ([12]; 0.12 µM): 0.645 | viability ([12]; 0.6 µM): 0.822 | viability ([12]; 3 µM): 0.973 | viability ([12]; 15 µM): 0.587 | viability ([13]; 0.024 µM): 0.929 | viability ([13]; 0.12 µM): 1.13 | viability ([13]; 0.6 µM): 1.34 | viability ([13]; 3 µM): 1.98 | viability ([13]; 15 µM): 1.46 | viability ([14]; 0.024 µM): 0.839 | viability ([14]; 0.12 µM): 0.905 | viability ([14]; 0.6 µM): 0.92 | viability ([14]; 3 µM): 0.957 | viability ([14]; 15 µM): 0.885 | viability ([15]; 0.024 µM): 1.01 | viability ([15]; 0.12 µM): 1.02 | viability ([15]; 0.6 µM): 1.13 | viability ([15]; 3 µM): 1.02 | viability ([15]; 15 µM): 1.04 | viability ([16]; 0.024 µM): 0.938 | viability ([16]; 0.12 µM): 1.05 | viability ([16]; 0.6 µM): 0.94 | viability ([16]; 3 µM): 1.08 | viability ([16]; 15 µM): 0.858 | viability ([17]; 0.024 µM): 1.05 | viability ([17]; 0.12 µM): 1.01 | viability ([17]; 0.6 µM): 1.06 | viability ([17]; 3 µM): 0.999 | viability ([17]; 15 µM): 1 | viability ([19]; 0.024 µM): 0.919 | viability ([19]; 0.12 µM): 1.03 | viability ([19]; 0.6 µM): 1.03 | viability ([19]; 3 µM): 1.22 | viability ([19]; 15 µM): 1.66

— the supplement of paper PMC10733146
